Assay results reported in the supplement of paper PMC10307832.

What was measured:
Assay in all cases: relative viability (nuclei count vs DMSO), 5 days (fraction); higher = more cells survive
RU-SKI 43 + Trametinib = compound: CC[C@@H](C)CNCC(=O)N1CCC2=C([C@@H]1COC3=CC=CC(=C3)C)C=CS2 [RU-SKI 43] + CC(=O)Nc1cccc(-n2c(=O)n(C3CC3)c(=O)c3c(Nc4ccc(I)cc4F)n(C)c(=O)c(C)c32)c1 [Trametinib] (partner 0.02 µM)
Method in brief: (§1)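 A single step with final 0.05% Triton X-100, 1% formaldehyde and 1 ug/ml Hoechst fixed the cells and stained nuclei 5 days after treatment. Lung cancer cell lines in 1536-well plates had been treated by pin tool the day after seeding with one drug alone or a fixed anchor-drug dose plus five library-drug doses (not always all listed) in √10 steps, and nuclei were counted on 4× images. Relative viability is the ratio of nuclei in treated wells to nuclei in vehicle wells, taken as the median of duplicate plates.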

RU-SKI 43 + Foretinib = compound: CC[C@@H](C)CNCC(=O)N1CCC2=C([C@@H]1COC3=CC=CC(=C3)C)C=CS2 [RU-SKI 43] + COc1cc2c(Oc3ccc(NC(=O)C4(C(=O)Nc5ccc(F)cc5)CC4)cc3F)ccnc2cc1OCCCN1CCOCC1 [Foretinib] (partner 0.25 µM)
Method in brief: as §1

RU-SKI 43 + Tozasertib = compound: CC[C@@H](C)CNCC(=O)N1CCC2=C([C@@H]1COC3=CC=CC(=C3)C)C=CS2 [RU-SKI 43] + Cc1cc(Nc2cc(N3CCN(C)CC3)nc(Sc3ccc(NC(=O)C4CC4)cc3)n2)n[nH]1 [Tozasertib] (partner 0.1 µM)
Method in brief: as §1

MK-8033 + Foretinib = compound: Cn1cc(-c2cnc3ccc4ccc(CS(=O)(=O)NCc5ccccn5)cc4c(=O)c3c2)cn1 [MK-8033] + COc1cc2c(Oc3ccc(NC(=O)C4(C(=O)Nc5ccc(F)cc5)CC4)cc3F)ccnc2cc1OCCCN1CCOCC1 [Foretinib] (partner 0.25 µM)
Method in brief: as §1

Row | Cell Line | relative viability (RU-SKI 43 + Trametinib; first compound 0.1 µM) | relative viability (RU-SKI 43 + Trametinib; first compound 0.3162 µM) | relative viability (RU-SKI 43 + Trametinib; first compound 1 µM) | relative viability (RU-SKI 43 + Trametinib; first compound 3.162 µM) | relative viability (RU-SKI 43 + Trametinib; first compound 10 µM) | relative viability (RU-SKI 43 + Foretinib; first compound 0.1 µM) | relative viability (RU-SKI 43 + Foretinib; first compound 0.3162 µM) | relative viability (RU-SKI 43 + Foretinib; first compound 1 µM) | relative viability (RU-SKI 43 + Foretinib; first compound 3.162 µM) | relative viability (RU-SKI 43 + Foretinib; first compound 10 µM) | relative viability (RU-SKI 43 + Tozasertib; first compound 0.1 µM) | relative viability (RU-SKI 43 + Tozasertib; first compound 0.3162 µM) | relative viability (RU-SKI 43 + Tozasertib; first compound 1 µM) | relative viability (RU-SKI 43 + Tozasertib; first compound 3.162 µM) | relative viability (RU-SKI 43 + Tozasertib; first compound 10 µM) | relative viability (MK-8033 + Foretinib; first compound 0.02 µM) | relative viability (MK-8033 + Foretinib; first compound 0.06325 µM) | relative viability (MK-8033 + Foretinib; first compound 0.2 µM) | relative viability (MK-8033 + Foretinib; first compound 0.6325 µM) | relative viability (MK-8033 + Foretinib; first compound 2 µM)
1 | NCI-H2347 | 0.293 | 0.275 | 0.388 | 0.289 | 0.302 | 1.04 | 1.04 | 1.34 | 0.842 | 1.06 | 0.448 | 0.449 | 0.523 | 0.535 | 0.501 | 1.21 | 1.01 | 0.805 | 0.839 | 0.939
2 | 201T | 0.709 | 0.717 | 0.776 | 0.789 | 0.749 | 1.04 | 1.11 | 1.12 | 1.07 | 1.01 | 0.883 | 1.03 | 0.883 | 0.931 | 0.812 | 1.06 | 1.05 | 1.13 | 1.19 | 1.1
3 | NCI-H1650 | 0.556 | 0.703 | 0.533 | 0.712 | 0.55 | 1.05 | 1.22 | 1.24 | 1.02 | 0.887 | 0.381 | 0.374 | 0.38 | 0.427 | 0.303 | 1.13 | 1.04 | 1.07 | 1.08 | 0.951
4 | NCI-H1734 | 0.656 | 0.758 | 0.724 | 0.695 | 0.622 | 0.844 | 0.913 | 0.938 | 0.781 | 0.656 | 0.238 | 0.217 | 0.276 | 0.258 | 0.267 | 0.829 | 0.665 | 0.78 | 0.861 | 0.856
5 | SW 1573 | 0.586 | 0.591 | 0.584 | 0.567 | 0.39 | 0.997 | 1.21 | 0.843 | 1.04 | 0.887 | 0.209 | 0.22 | 0.204 | 0.123 | 0.196 | 0.93 | 0.759 | 0.841 | 0.918 | 0.995
6 | NCI-H1993 | 0.474 | 0.514 | 0.615 | 0.579 | 0.694 | 0.747 | 0.889 | 0.786 | 0.801 | 0.729 | 0.566 | 0.569 | 0.585 | 0.588 | 0.564 | 0.696 | 0.774 | 0.789 | 0.73 | 0.949
7 | NCI-H1755 | 0.751 | 0.866 | 0.839 | 0.833 | 0.768 | 0.935 | 1.07 | 0.975 | 0.979 | 0.919 | 0.622 | 0.651 | 0.602 | 0.571 | 0.496 | 0.961 | 0.884 | 0.865 | 0.889 | 0.949
8 | PC-14 | 0.637 | 0.824 | 0.82 | 0.652 | 0.533 | 0.872 | 1.15 | 1.02 | 1.07 | 0.909 | 0.635 | 0.522 | 0.7 | 0.554 | 0.471 | 0.918 | 0.859 | 0.905 | 0.985 | 0.869
9 | NCI-H358 | 0.125 | 0.138 | 0.181 | 0.139 | 0.124 | 0.631 | 0.749 | 0.829 | 0.776 | 0.489 | 0.109 | 0.106 | 0.0941 | 0.103 | 0.0859 | 0.801 | 0.511 | 0.72 | 0.565 | 0.643
10 | LK-2 | 0.766 | 1.01 | 0.915 | 0.828 | 0.736 | 1.28 | 1.13 | 1.27 | 1.46 | 1.05 | 0.186 | 0.156 | 0.165 | 0.181 | 0.171 | 1.05 |  | 1.13 | 1.42 | 1.08
11 | HCC-827 | 0.501 | 0.52 | 0.545 | 0.574 | 0.46 | 1.01 | 1.11 | 1.11 | 1.07 | 1.01 | 0.435 | 0.523 | 0.592 | 0.426 | 0.368 | 1.1 |  | 0.989 | 0.967 | 1.03
12 | LCLC-97TM1 | 0.193 | 0.246 | 0.256 | 0.187 | 0.148 | 0.945 | 0.938 | 1.05 | 1 | 1.04 | 0.26 | 0.22 | 0.207 | 0.21 | 0.231 | 0.9 | 0.924 | 0.925 | 0.951 | 0.969
13 | EMC-BAC-2 | 0.857 | 0.9 | 0.939 | 0.861 | 0.749 | 1.01 | 0.998 | 1.04 | 1.01 | 0.986 | 0.295 | 0.235 | 0.262 | 0.296 | 0.249 | 0.899 | 0.942 | 0.936 | 1.05 | 0.971
14 | NCI-H647 | 0.445 | 0.57 | 0.472 | 0.521 | 0.439 | 1.39 | 1.42 | 1.25 | 1.17 | 1.25 | 0.262 | 0.261 | 0.227 | 0.231 | 0.262 | 1.09 | 1.15 | 1.02 | 1.17 | 1.1
15 | NCI-H1944 | 0.349 | 0.406 | 0.417 | 0.387 | 0.388 | 0.812 | 0.878 | 0.918 | 1.01 | 0.819 | 0.251 | 0.27 | 0.257 | 0.251 | 0.23 | 0.88 | 0.773 | 0.852 | 0.962 | 0.927
16 | PC-3 [JPC-3] | 0.63 | 0.523 | 0.79 | 0.662 | 0.62 | 1.02 | 1.04 | 1.11 | 1.06 | 0.976 | 0.815 | 0.953 | 1.02 | 0.959 | 0.773 | 0.977 | 0.952 | 0.994 | 1 | 1.03
17 | SK-LU-1 | 0.43 | 0.495 | 0.492 | 0.49 | 0.385 | 0.831 | 0.979 | 0.826 | 0.836 | 0.638 | 0.331 | 0.365 | 0.322 | 0.305 | 0.287 | 0.843 | 0.813 | 0.837 | 0.849 | 0.815
18 | NCI-H1975 | 0.311 | 0.351 | 0.355 | 0.296 | 0.257 | 1.09 | 1.28 | 1.01 | 0.922 | 0.939 | 0.755 | 0.852 | 0.854 | 0.712 | 0.574 | 0.944 | 0.944 | 0.875 |  | 1
19 | HARA | 0.507 | 0.806 | 1.02 | 0.936 | 0.561 | 1.06 | 1.25 | 1.01 | 1.25 | 1.13 | 0.125 | 0.0842 | 0.118 | 0.111 | 0.108 | 0.772 | 0.781 | 0.884 | 0.548 | 0.997
20 | H3255 | 0.664 | 0.682 | 0.625 | 0.578 | 0.588 | 0.914 | 0.83 | 0.817 | 0.708 | 0.841 | 0.721 | 0.726 | 0.292 | 0.76 | 0.489 | 0.848 | 0.619 | 0.831 | 0.596 | 0.757
21 | NCI-H727 |  | 0.388 | 0.449 | 0.372 | 0.374 | 1.11 | 0.879 | 1.2 | 1.07 | 0.863 | 0.658 | 0.583 | 0.54 | 0.564 | 0.629 | 0.817 |  | 0.859 | 0.685 | 1.06
22 | EKVX | 0.275 | 0.312 | 0.268 | 0.349 | 0.315 | 0.735 | 0.712 | 0.876 | 0.719 | 0.499 | 0.354 | 0.379 | 0.374 | 0.372 | 0.31 | 0.849 | 0.702 | 0.79 | 0.48 | 0.968
23 | NCI-H1666 | 0.831 | 0.804 | 0.803 | 0.845 | 0.68 | 0.922 | 0.96 | 0.926 | 0.773 | 0.848 | 0.495 | 0.596 | 0.571 | 0.525 | 0.435 | 1.02 | 0.842 | 0.911 | 0.953 | 1.01
24 | NCI-H1915 | 0.296 | 0.34 | 0.311 | 0.288 | 0.265 | 1.19 | 1.23 | 1.17 | 1.15 | 1.14 | 0.435 | 0.516 | 0.38 | 0.469 | 0.4 | 1.08 | 0.997 | 1.05 | 1.07 | 1.11
25 | HCC-366 | 0.34 | 0.253 | 0.311 | 0.333 | 0.212 | 0.975 | 1.01 | 0.994 | 1.04 | 0.811 | 0.098 | 0.0997 | 0.124 | 0.132 | 0.0872 | 0.965 | 0.864 | 0.929 | 0.965 | 0.962
26 | EPLC-272H | 0.294 | 0.294 | 0.552 | 0.296 | 0.278 | 0.717 | 0.677 | 0.745 | 0.744 | 0.592 | 0.213 | 0.226 | 0.445 | 0.242 | 0.207 | 0.608 | 0.537 | 0.61 | 0.605 | 0.507
27 | RERF-LC-KJ | 0.846 | 0.84 | 0.914 | 0.85 | 0.768 | 0.849 | 0.976 | 0.812 | 0.959 | 0.913 | 0.458 | 0.583 | 0.476 | 0.505 | 0.352 | 0.869 | 0.854 | 0.829 | 0.928 | 0.875
